Legend:
[1] = target: Luciferin 4-monooxygenase (Photinus pyralis, UniProt P08659)
Description: GSK_PKIS: Inhibition of Firefly Luciferase (Data from PubChem: AID 652016) [NIH NCATS]

[2] = target: T1, Coelenterazine h 2-monooxygenase (Renilla reniformis, UniProt P27652)
T1 sequence (P27652 whole entry): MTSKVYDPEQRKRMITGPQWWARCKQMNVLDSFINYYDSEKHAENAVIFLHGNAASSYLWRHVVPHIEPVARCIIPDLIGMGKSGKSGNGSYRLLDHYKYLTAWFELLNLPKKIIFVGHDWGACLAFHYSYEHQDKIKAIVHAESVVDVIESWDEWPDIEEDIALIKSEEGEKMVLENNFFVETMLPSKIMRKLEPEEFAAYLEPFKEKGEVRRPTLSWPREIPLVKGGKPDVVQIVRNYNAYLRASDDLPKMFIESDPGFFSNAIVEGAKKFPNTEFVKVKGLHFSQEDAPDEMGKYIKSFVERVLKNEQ
Description: GSK_PKIS: Inhibition of Sea Pansy Luciferase (Data from PubChem: AID 652015) [NIH NCATS]

Chain of Luciferin 4-monooxygenase (P08659 whole entry): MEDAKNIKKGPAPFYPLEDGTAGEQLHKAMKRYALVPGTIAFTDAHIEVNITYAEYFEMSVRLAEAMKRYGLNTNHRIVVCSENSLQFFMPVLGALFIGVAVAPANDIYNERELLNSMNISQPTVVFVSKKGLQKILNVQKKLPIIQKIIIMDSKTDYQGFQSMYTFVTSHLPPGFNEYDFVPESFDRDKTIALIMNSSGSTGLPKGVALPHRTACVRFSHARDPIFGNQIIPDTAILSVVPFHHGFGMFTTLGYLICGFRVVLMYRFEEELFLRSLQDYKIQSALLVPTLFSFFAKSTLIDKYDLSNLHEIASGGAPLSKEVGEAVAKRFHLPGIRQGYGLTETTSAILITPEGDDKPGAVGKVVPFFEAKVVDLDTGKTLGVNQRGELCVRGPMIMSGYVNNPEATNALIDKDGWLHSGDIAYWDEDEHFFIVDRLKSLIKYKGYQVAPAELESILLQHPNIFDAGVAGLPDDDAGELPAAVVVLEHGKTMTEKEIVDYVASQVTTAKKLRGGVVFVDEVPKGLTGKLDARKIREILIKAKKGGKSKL

SMILES | AC50 [1] | AC50 [2] | AC50 ([1]; read-out: AC50) [µM] | AC50 ([2]; read-out: AC50) [µM]
NS(=O)(=O)c1ccc(N/N=C2\C(=O)Nc3ccc(C(=O)NCc4ccncc4)cc32)cc1 [GW300657X] | Phenotype: Inactive; Curve_Description: None | Phenotype: Inactive; Curve_Description: None |  | 
COc1cc(N2CCN(C(C)C)CC2)ccc1Nc1nc(Nc2ccc(F)cc2C(=O)NC[C@@H](O)CO)c2cc[nH]c2n1 [GSK-1392956A] | Phenotype: Inactive; Curve_Description: None | Phenotype: Inactive; Curve_Description: None |  | 
Cc1ccc(-c2cc3c(NC(=O)C4CC4)ncnc3o2)cc1 [GW819230X] |  | Phenotype: Inactive; Curve_Description: None | 18.3 | 
Cc1ccc(NC(=O)c2ccoc2)cc1-c1ccc(C(=O)NCC2CC2)cc1 [GW743024X] |  | Phenotype: Inactive; Curve_Description: None | 41.1 | 
C/C(Nc1ccc(S(N)(=O)=O)cc1)=C1/C(=O)Nc2ccccc21 [GW335962X] |  | Phenotype: Inactive; Curve_Description: None | 3.66 | 
COc1ccc(-c2cc3c(N)ncnc3o2)cc1 [GW642138X] |  | Phenotype: Inactive; Curve_Description: None | 6.51 | 
CCS(=O)(=O)c1ccc(OC)c(Nc2ncc(-c3cccc(F)c3)o2)c1 [GW621970X] | Phenotype: Inactive; Curve_Description: None | Phenotype: Inactive; Curve_Description: None |  | 
CCS(=O)(=O)c1ccc(OC)c(Nc2ncc(-c3cccc(OC)c3)o2)c1 [GW580509X] | Phenotype: Inactive; Curve_Description: None |  |  | 18.3
Nc1ncc(-c2cccc(S(N)(=O)=O)c2)c2scc(-c3ccc(F)c(Cl)c3)c12 [GW856804X] | Phenotype: Inactive; Curve_Description: None |  |  | 36.6
COc1cc(N2CCN(C(C)C)CC2)ccc1Nc1nc(Nc2cccc3ncccc23)c2cc[nH]c2n1 [GSK-1511931A] |  |  | 25.9 | 18.3
NS(=O)(=O)c1ccc(Nc2ncc(-c3ccccc3)o2)cc1 [GW572399X] | Phenotype: Inactive; Curve_Description: None | Phenotype: Inactive; Curve_Description: None |  | 
COc1cccc(-c2c[nH]c3c(N/N=C/c4ccncc4)ncnc23)c1 [GW814408X] |  | Phenotype: Inactive; Curve_Description: None | 5.8 | 
CCn1c(-c2nonc2N)nc2cncc(C(=O)N3CCNCC3)c21.Cl | Phenotype: Inactive; Curve_Description: None | Phenotype: Activator; Curve_Description: None |  | 
Cc1cc(-c2ccccn2)cc(C)c1/C=C/c1cncc(-c2nn[nH]n2)c1.Cl [GW459057A] | Phenotype: Inactive; Curve_Description: None |  |  | 32.6
O=C(NCC1CC1)c1ccc(-c2cccc(C(=O)NC3CC3)c2)cc1 [GW806776X] |  |  | 9.19 | 7.3
OCc1ccc(-c2nc(-c3ccccn3)c(-c3ccc4c(c3)OCO4)[nH]2)cc1 |  |  | 18.3 | 41.1
O=C1NC(=O)C(c2ccc(Cl)cc2)=C1Nc1ccc(Cl)c(C(=O)O)c1 | Phenotype: Inactive; Curve_Description: None | Phenotype: Inactive; Curve_Description: None |  | 
CCn1c(-c2nonc2N)nc2c(C#CC(C)(C)O)nc(OC[C@@H](N)c3ccccc3)cc21 [GSK-938890A] | Phenotype: Inactive; Curve_Description: None |  |  | 29.1
COc1ccc(-c2nn3ncccc3c2-c2ccnc(Nc3ccc(Cl)c(C(F)(F)F)c3)n2)cc1 [GW829115X] | Phenotype: Inactive; Curve_Description: None | Phenotype: Activator; Curve_Description: None |  | 
Cl.NS(=O)(=O)c1cccc(Nc2cc(-c3ccc(F)cc3)n[nH]2)c1 [GW824645A] |  | Phenotype: Inactive; Curve_Description: None | 11.6 | 
COc1cc(C)c(N(C)C(=O)CN(C)C)cc1Nc1nc(Nc2cccc(F)c2C(N)=O)c2cc[nH]c2n1 [GSK-2219385A] | Phenotype: Inactive; Curve_Description: None | Phenotype: Inactive; Curve_Description: None |  | 
O=C1Nc2ccccc2/C1=C1\CCc2cc(O)ccc21 |  |  | 5.17 | 20.6
COc1ccc(-c2ccncc2)cc1C(N)=O [GSK-605714A] | Phenotype: Inactive; Curve_Description: None | Phenotype: Inactive; Curve_Description: None |  | 
Cn1cc(C=C2C(=O)Nc3cccnc32)c2ccccc21 [GW441756X] |  |  | 14.6 | 20.6
Fc1ccc(-c2ncn(C3CCNCC3)c2-c2ccnc(Oc3ccccc3)n2)cc1 |  |  | 20.6 | 18.3
COc1c(C(N)=O)cc(-c2ccc(Cl)cc2)cc1-c1ccc(S(N)(=O)=O)cc1 [GSK-711701A] |  | Phenotype: Inactive; Curve_Description: None | 29.1 | 

SMILES | AC50 [1] | AC50 [2] | AC50 ([1]; read-out: AC50) [µM] | AC50 ([2]; read-out: AC50) [µM]
CCn1c(-c2nonc2N)nc2cnc(Oc3cccc(NC(=O)c4ccc(OCCN5CCOCC5)cc4)c3)cc21.Cl [GSK-269962B] | Phenotype: Inactive; Curve_Description: None | Phenotype: Inactive; Curve_Description: None |  | 
NS(=O)(=O)c1cccc(-c2cc3ccncc3cc2OCc2ccccc2)c1 [GSK-980961A] | Phenotype: Inactive; Curve_Description: None |  |  | 25.9
Cl.ON=C1CCc2cc(-c3nc(C4CCNCC4)[nH]c3-c3ccncc3)ccc21 | Phenotype: Inactive; Curve_Description: None | Phenotype: Inactive; Curve_Description: None |  | 
CC1=C(C(=O)Nc2ccc3[nH]ncc3c2)C(c2ccc(Cl)c(Cl)c2)CC(=O)N1 (configuration not stated) [GSK-299115A] | Phenotype: Inactive; Curve_Description: None | Phenotype: Inactive; Curve_Description: None |  | 
N#Cc1ccc(Oc2nccc(-c3c(-c4ccc(F)cc4)ncn3C3CCNCC3)n2)cc1 | Phenotype: Inactive; Curve_Description: None | Phenotype: Inactive; Curve_Description: None |  | 
N#Cc1cccc(Nc2nccc(-c3cnn4ncccc34)n2)c1 [GW778894X] | Phenotype: Inactive; Curve_Description: None | Phenotype: Inactive; Curve_Description: None |  | 
CN1CCC(n2cnc(-c3ccc(F)cc3)c2-c2ccnc(NCCO)n2)CC1 |  | Phenotype: Inactive; Curve_Description: None | 36.6 | 
Fc1ccc(-c2ncn(CCCN3CCOCC3)c2-c2ccncc2)cc1 [SB-210313] | Phenotype: Inactive; Curve_Description: None | Phenotype: Activator; Curve_Description: None |  | 
FC(F)(F)CNc1nccc(-c2cnn3ncccc23)n1 [GW683003X] | Phenotype: Activator; Curve_Description: None | Phenotype: Inactive; Curve_Description: None |  | 
Fc1cccc(COc2ccc(Nc3ncnc4sc(-c5ccco5)cc34)cc2Cl)c1 [GSK-969786A] | Phenotype: Inactive; Curve_Description: None | Phenotype: Inactive; Curve_Description: None |  | 
CN1CCC(n2cnc(-c3ccc(F)cc3)c2-c2ccnc(N)n2)CC1 | Phenotype: Inactive; Curve_Description: None | Phenotype: Inactive; Curve_Description: None |  | 
COc1cccc(-n2ncc3c(N/N=C/c4ccc(C(=O)NCCN(C)C)cc4)ncnc32)c1.Cl [GW784307A] |  | Phenotype: Inactive; Curve_Description: None | 16.3 | 
COc1ccc(-c2cc(-c3c[nH]nc3-c3ccccn3)ccn2)cc1 [GW679410X] |  | Phenotype: Inactive; Curve_Description: None | 16.3 | 
COc1ccc2ncn(-c3cc(O[C@H](C)c4ccccc4C(F)(F)F)c(C(N)=O)s3)c2c1 [GSK-317315A] | Phenotype: Inactive; Curve_Description: None |  |  | 20.6
COc1cccc(-n2ncc3c(N/N=C/c4cccc(F)c4)ncnc32)c1 [GW817394X] |  | Phenotype: Inactive; Curve_Description: None | 18.3 | 
COc1cc2ncn(-c3cc(OCc4ccccc4C(F)(F)F)c(C(N)=O)s3)c2cc1OC [GW843682X] | Phenotype: Inactive; Curve_Description: None | Phenotype: Inactive; Curve_Description: None |  | 
Cc1ccc2c(-c3ccnc(Nc4cccc(C(F)(F)F)c4)n3)c(-c3ccccc3)nn2n1 [GW829906X] |  | Phenotype: Inactive; Curve_Description: None | 41.1 | 
N#Cc1c(NC(=O)c2cccc3ccccc23)sc2c1CCCC2 [GW620972X] |  | Phenotype: Inactive; Curve_Description: None | 18.3 | 
CCn1c(-c2nonc2N)nc2c(N3CCCC3)nccc21 | Phenotype: Inactive; Curve_Description: None | Phenotype: Inactive; Curve_Description: None |  | 
Fc1cccc(COc2ccc(Nc3ncncc3C#Cc3ccccc3)cc2Cl)c1 [GW651576X] | Phenotype: Inactive; Curve_Description: None | Phenotype: Inactive; Curve_Description: None |  | 
COc1cc2c(cc1Nc1nc(Nc3ccsc3C(N)=O)c3cc[nH]c3n1)N(C(=O)CN(C)C)CCC2 [GSK-2110236A] | Phenotype: Inactive; Curve_Description: None |  |  | 46.1
O=C(O)C(F)(F)F.O=C(O[C@H]1CN[C@H](C#Cc2cc3ncnc(Nc4ccc5c(ccn5Cc5cc(F)ccc5F)c4)c3s2)C1)N1CCOCC1 [GSK-259178A] | Phenotype: Inactive; Curve_Description: None | Phenotype: Inactive; Curve_Description: None |  | 
FC(F)(F)c1cccc(-c2nn3ncccc3c2-c2ccnc(Nc3ccc4c(c3)OCCO4)n2)c1 [GW827102X] |  | Phenotype: Inactive; Curve_Description: None | 32.6 | 
COc1cc2ncn(-c3cc(OCc4ccccc4S(C)(=O)=O)c(C#N)s3)c2cc1OC [GSK-319347A] | Phenotype: Inactive; Curve_Description: None | Phenotype: Inactive; Curve_Description: None |  | 
COc1cccc(/C=N/Nc2ncnc3c2cnn3-c2cccc(OC)c2)c1 [GW829874X] | Phenotype: Inactive; Curve_Description: None | Phenotype: Inactive; Curve_Description: None |  | 

— ChEMBL document CHEMBL2303647, “Data associated with the publication PLoS ONE, 8(3), e57888, (2013) PMID: 23505445. Compounds: GSK PKIS; Assays: NIH NCATS”
